Test results reported in patent publication US9896423B2, “Deuterium substituted 1-[2-(2,4-dimethyl-phenylsulfanyl)-phenyl]piperazine compound or derivatives thereof, and pharmaceutical composition and use thereof” (Jiangsu Jibeier Pharmaceutical Co. Ltd., priority 2014, dated 2018).
Several values for one entry are separate records, joined by “and”; a condition that tells them apart may be missing. Equal values may be shown once. Where a name gives a salt, the structure may show the parent alone. Read-outs that look alike come from different tables or passages of the source.

What was measured:
[1] = Pharmacokinetic test in rats, intravenous injection; assay type: in vivo, SD rats; conditions: for concentration at 0.25 h / concentration at 0.5 h / concentration at 1 h / concentration at 2 h / concentration at 3 h: Sprague-Dawley, intravenous, 2 mg/kg iv
Method: The preferred compound of the present disclosure was assessed in rats for its pharmacokinetic profile.
SD rats, male and female, weighing 150 to 250 g
Mobile phase: 10 mM ammonium formate aqueous solution:methanol=15:85
The ionization source was electrospray ionization source. The detection mode was positive mode. Multiple reaction monitoring (MRM) was used as the scanning mode. The ion reaction for the quantitative analysis was the following: m/z was 305.2\150.0 for XX, and 256.1\167.1 for diphenhydramine (the internal standard).
Four male SD rats were taken. The dosage was calculated as 5 mL/kg body weight and 2 mg/kg. XX or YY was dissolved in DMSO (3% of a total volume) and castor oil (3% of the total volume) was added to the solution, followed by agitating with a vortex mixer. Subsequently, saline was added to the mixture to the total volume to afford the intravenous injection for the rats. The injections were intravenously administered to four male SD rats. Blood from the rats' orbits was collected 3 min, 8 min, 15 min, 30 min, 1 hr, 2 hr, 3 hr, 4 hr, 6 hr, 9 hr, 12 hr and 24 hr later after the injection, respectively.
After the blood collection, the tubes were immediately gently turned upside down at least five times to ensure sufficient mixing, and placed on ice. Heparin was added for anticoagulation. The samples were centrifuged at 8000 rpm for 5 min to separate serum from erythrocyte. The serum was transferred with a pipettor to 2 mL polypropylene (PP) tubes, which were marked with the name of the compound and the time points, and stored in a refrigerator at −40° C. before LC-MS analysis. Samples with high concentrations were diluted with rat blank plasma.
2.5 μL of Meth-H2O and 5 μL of the internal standard solution (20 ng/mL, IS) were added to 50 μL of the plasma. Subsequently, 150 μL of methanol was added to the mixture to precipitate protein and the samples were then centrifuged at 13000 rpm for 5 min. The upper organic phase was taken out, filtrated with a 0.22 μM microporous membrane, and 2 μL of the sample was injected for the LC-MS analysis.

Male ICR mice = experiment: Mice tail suspension test; assay type: in vivo; conditions: for effect on length of time that the tail-suspended mice stopped moving vs blank control: two successive weeks; for Duration without Move within 6 min: mice tail suspension, gavage 14 days, n = 10, x ± s
Description: The following method is used for testing the antidepression effect of the compound of the present application. ICR mice or SD rats, gavaged for two successive weeks, were subjected to mice swimming test, mice tail suspension test and rats swimming test. See below for details of the tests and results.
The animals, medicaments, calculation of dosages to the mice, preparation of drug solution and apparatus are the same as those in the mice swimming test.
The medicaments were correspondingly administered by gavage, once a day, to the animals in the groups for 14 successive days, with the amount of 0.2 ml per 10 g of body weight. The mice were subjected to tail suspension one hour later after the last oral administration. The suspension continued for 6 min.
The data was given as “average±standard deviation” (x±s). One-way analysis of variance (ANOVA) was used for data difference statistics. Differences among the groups were determined by P<0.05.

[2] = male, rat, plasma, 2 mg/kg, individual rats, read-out: Concentrations in Plasma of Rats after Intravenous Injection
[3] = male, rat, plasma, 2 mg/kg, mean, read-out: Concentrations in Plasma of Rats after Intravenous Injection, Mean ± SD
[4] = rats, iv 2 mg/kg, individual rats, 2 mg/kg

[2H]C([2H])([2H])c1ccc(Sc2ccccc2N2CCNCC2)c(C([2H])([2H])[2H])c1 [XX, 1-{2-[2,4-bis(trideuteriomethyl)phenylsulfanyl]phenyl}piperazine hydrobromic acid salt] gave an MRT inf ([1]; male, SD, rat, plasma, iv, 2 mg/kg, rats, iv 2 mg/kg, XX n = 4, YY n = 3, read-out: MRT0-∞, Mean ± SD) of 6.87 ± 0.84 h, a Vd ([1]; male, SD, rat, plasma, iv, 2 mg/kg, rats, iv 2 mg/kg, XX n = 4, YY n = 3, read-out: Vz, Mean ± SD) of 32.9 ± 9.76 L/kg and a half-life ([1]; male, SD, rat, plasma, iv, 2 mg/kg, rats, iv 2 mg/kg, XX n = 4, YY n = 3, read-out: t1/2, Mean ± SD (converted)) of 5.47 ± 1.49 h. For the same molecule, the AUC(0-t) ([1]; male, SD, rat, plasma, iv, 2 mg/kg, rats, iv 2 mg/kg, individual rats 1-4 (Table 9), read-out: AUC0-1) was 462 ng·h/mL, the AUC(0-inf) ([1]; male, SD, rat, plasma, iv, 2 mg/kg, rats, iv 2 mg/kg, individual rats, read-out: AUC0-∞) was 467 ng·h/mL and the Cmax ([1]; male, SD, rat, plasma, iv, 2 mg/kg, rats, iv 2 mg/kg, individual rats, read-out: Cmax) was 134 ng/mL. The MRT inf ([1]; male, SD, rat, plasma, iv, 2 mg/kg, rats, iv 2 mg/kg, individual rats, read-out: MRT0-∞) was 6.59 h, the Vd ([1]; male, SD, rat, plasma, iv, 2 mg/kg, rats, iv 2 mg/kg, individual rats, read-out: Vz) was 23 L/kg and the half-life ([1]; male, SD, rat, plasma, iv, 2 mg/kg, rats, iv 2 mg/kg, individual rats, read-out: t1/2 (converted)) was 3.72 h. It also gave an AUC(0-t) ([1]; male, SD, rat, plasma, iv, 2 mg/kg, rats, iv 2 mg/kg, n = 4 (Table 9), read-out: AUC0-1, Mean ± SD) of 461 ± 29.5 ng·h/mL, a concentration at 0.25 h [1, 2] of 78.1 ng/mL and a concentration at 0.25 h [1, 3] of 77.8 ± 0.78 ng/mL. For the same molecule, the concentration at 0.5 h [1, 2] was 76.6 ng/mL, the concentration at 0.5 h [1, 3] was 75.2 ± 2.61 ng/mL and the concentration at 1 h [1, 2] was 72.2 ng/mL. It also gave a concentration at 1 h [1, 3] of 69.9 ± 3.51 ng/mL, a concentration at 2 h [1, 2] of 60.7 ng/mL and a concentration at 2 h [1, 3] of 63.2 ± 7.01 ng/mL. The concentration at 3 h [1, 2] was 49.6 ng/mL, the concentration at 3 h [1, 3] was 47.8 ± 6.6 ng/mL and the “CL, Mean ± SD” value ([1]; rats, iv 2 mg/kg, XX n = 4, YY n = 3) was 4.16 ± 0.20 L/h/k. For the same molecule, the AUC0-1 ([1]; rats, iv 2 mg/kg, individual rats 1-4 (Table 9), 2 mg/kg) was 492.9 ng·h/mL and 466.0 ng·h/mL and 421.5 ng·h/mL, the “AUC0-∞” value [1, 4] was 512.0 ng·h/mL and 489.7 ng·h/mL and 459.8 ng·h/mL and the CL [1, 4] was 42.8 L/h/k and 3.91 L/h/k and 4.09 L/h/k and 4.35 L/h/k. The Cmax [1, 4] was 123.2 ng/mL and 127.2 ng/mL and 121.4 ng/mL, the “MRT0-∞” value [1, 4] was 6.14 h and 6.67 h and 8.08 h and the Vz [1, 4] was 29.0 L/kg and 33.4 L/kg and 46.0 L/kg. For the same molecule, the t1/2 [1, 4] was 5.15 h and 5.66 h and 7.33 h, the “effect on length of time that the tail-suspended mice stopped moving vs blank control” value (Male ICR mice; 1.5 mg/kg gavage) was “showed a tendency to shorten” and the “effect on length of time that the tail-suspended mice stopped moving vs blank control” value (Male ICR mice; 3 mg/kg gavage) was “markedly shortened”. For the same molecule, the “Duration without Move within 6 min” value (Male ICR mice; 1.5 mg/kg) was 212.6 ± 54.9 s and the “Duration without Move within 6 min” value (Male ICR mice; 3 mg/kg) was 152.9 ± 35.4 s.
